Results taken from US4496576A, “Compositions of p-hydroxybenzoic acid esters and methods of preparation and use” (priority 1983, dated 1985).
Converted amounts (≈) assume the structure as drawn. Like-named read-outs stand apart in the source and are kept apart here.

How the values were obtained:
[1] = system: Staphylococcus aureus ATCC 6538; assay: minimum inhibitory concentration (agar plate growth inhibition); assay type: cell-based
Protocol: (§1) The mixture or composition prepared as in Example 1 was tested to determine the minimum inhibitory concentration (MIC) of the composition against various microorganisms (i.e., bacteria, yeast and fungi) according to the following procedure:
(§2) (1) Tryptic Soy Agar (TSA) was prepared according to the manufacturer's directions by suspending 40 g TSA in cold deionized water (1 liter). The suspension was heated to boiling in order to dissolve completely and then autoclaved for 15 minutes at 15 pounds pressure at 121° C.
(§3) (2) After autoclaving, the media was cooled to 45° C. in a water bath.
(§4) (3) At this point, the mixture was aseptically added to the TSA at different levels in order to obtain the desired test concentrations.
(§5) (1) The bacteria and yeast inoculum consisted of 0.1 ml of a 1:100 saline dilution of an overnight TSB broth culture (10-10 CFU/ml). CFU=Colony Forming Units.
(§6) (3) A sterile Dacron swab was used to spread the inoculum evenly over the entire agar surface.
(§7) (1) The bacteria and yeast plates were incubated at 35° C. for 48 hours.

[2] = system: Enterobacter cloacae ATCC 23355; assay: as above; assay type: cell-based
Protocol: as §1, §2, §3, §4, §5, §6, §7

[3] = system: Bacillus subtilis ATCC 6633; assay: as above; assay type: cell-based
Protocol: as §1, §2, §3, §4, §5, §6, §7

[4] = system: Salmonella typhosa ATCC 6539; assay: as above; assay type: cell-based; details: Salmonella enterica, 48 h
Protocol: as §1, §2, §3, §4, §5, §6, §7

[5] = system: Serratia marcescens ATCC 8100; assay: as above; assay type: cell-based
Protocol: as §1, §2, §3, §4, §5, §6, §7

[6] = system: Pseudomonas aeruginosa ATCC 15442; assay: as above; assay type: cell-based
Protocol: as §1, §2, §3, §4, §5, §6, §7

Saccharomyces cerevisiae = assay: as above; assay type: cell-based; details: 48 h
Protocol: as §1, §2, §3, §4, §5, §6, §7

[7] = system: Proteus vulgaris ATCC 13315; assay: as above; assay type: cell-based
Protocol: as §1, §2, §3, §4, §5, §6, §7

[8] = system: Klebsiella pneumoniae ATCC 8308; assay: as above; assay type: cell-based
Protocol: as §1, §2, §3, §4, §5, §6, §7

Streptococcus faecalis = assay: as above; assay type: cell-based; details: Enterococcus faecalis, 48 h
Protocol: as §1, §2, §3, §4, §5, §6, §7

[9] = system: Escherichia coli ATCC 8739; assay: as above; assay type: cell-based
Protocol: as §1, §2, §3, §4, §5, §6, §7

[10] = system: Pseudomonas aeruginosa ATCC 13388; assay: as above; assay type: cell-based
Protocol: as §1, §2, §3, §4, §5, §6, §7

Pseudomonas stutzeri = assay: as above; assay type: cell-based; details: Stutzerimonas stutzeri, 48 h
Protocol: as §1, §2, §3, §4, §5, §6, §7

[11] = system: Pseudomonas aeruginosa ATCC 9027; assay: as above; assay type: cell-based
Protocol: as §1, §2, §3, §4, §5, §6, §7

[12] = system: Staphylococcus epidermidis ATCC 1228; assay: as above; assay type: cell-based
Protocol: as §1, §2, §3, §4, §5, §6, §7

[13] = system: Candida albicans ATCC 10231; assay: as above; assay type: cell-based
Protocol: as §1, §2, §3, §4, §5, §6, §7

[14] = system: Pseudomonas aeruginosa ATCC 14502; assay: as above; assay type: cell-based
Protocol: as §1, §2, §3, §4, §5, §6, §7

[15] = system: Penicillium chrysogenum ATCC 9480; assay: as above; assay type: cell-based
Protocol: as §1, §2, §3, §4
(§8) (2) The fungus inoculum consisted of 0.1 ml of a spore-saline suspension harvested by gently rubbing the spores from a 1-week old Sabourand dextrose agar slant incubated at 25° C. with sterile saline (10-10 CFU/ml).
as §6
(§9) (2) The fungus plates were incubated at 30° C. for 72-96 hours.

[16] = system: Aspergillus niger ATCC 9642; assay: as above; assay type: cell-based
Protocol: as §1, §2, §3, §4, §8, §6, §9

[17] = system: Trichophyton mentagrophytes; assay: as above; assay type: cell-based
Protocol: as §1, §2, §3, §4, §8, §6, §9

physchem = details: water
[18] = ATCC6538, TSA, 35° C., 48 h, read-out: MIC
[19] = ATCC23355, TSA, 35° C., 48 h, read-out: MIC
[20] = ATCC6633, TSA, 35° C., 48 h, read-out: MIC
[21] = ATCC8100, TSA, 35° C., 48 h, read-out: MIC
[22] = ATCC15442, TSA, 35° C., 48 h, read-out: MIC
[23] = ATCC13315, TSA, 35° C., 48 h, read-out: MIC
[24] = ATCC8308, TSA, 35° C., 48 h, read-out: MIC
[25] = ATCC8739, TSA, 35° C., 48 h, read-out: MIC
[26] = ATCC13388, TSA, 35° C., 48 h, read-out: MIC
[27] = ATCC9027, TSA, 35° C., 48 h, read-out: MIC
[28] = ATCC1228, TSA, 35° C., 48 h, read-out: MIC
[29] = ATCC10231, TSA, 35° C., 48 h, read-out: MIC
[30] = ATCC14502, TSA, 35° C., 48 h, read-out: MIC
[31] = ATCC9480, TSA, 30° C., 72-96 h, read-out: MIC
[32] = ATCC9642, TSA, 30° C., 72-96 h, read-out: MIC
[33] = TSA, 30° C., 72-96 h, read-out: MIC

SMILES	MIC [1, 18]	MIC [2, 19]	MIC [3, 20]	MIC [4]	MIC [5, 21]	MIC [6, 22]	MIC (Saccharomyces cerevisiae; TSA, 35° C., read-out: MIC)	MIC [7, 23]	MIC [8, 24]	MIC (Streptococcus faecalis; TSA, 35° C., read-out: MIC)	MIC [9, 25]	MIC [10, 26]	MIC (Pseudomonas stutzeri; TSA, 35° C., read-out: MIC)	MIC [11, 27]	MIC [12, 28]	MIC [13, 29]	MIC [14, 30]	MIC [15, 31]	MIC [16, 32]	MIC [17, 33]	also measured
CC(C)COC(=O)c1ccc(O)cc1 [Isobutyl p-Hydroxybenzoate, isobutyl p-hydroxybenzoate]	250 µg/mL (≈ 1290 µM)	1000 µg/mL (≈ 5150 µM)	250 µg/mL (≈ 1290 µM)	1000 µg/mL (≈ 5150 µM)	1000 µg/mL (≈ 5150 µM)	> 1000 µg/mL	125 µg/mL (≈ 644 µM)	250 µg/mL (≈ 1290 µM)	500 µg/mL (≈ 2570 µM)	500 µg/mL (≈ 2570 µM)	> 1000 µg/mL	> 1000 µg/mL	> 1000 µg/mL	> 1000 µg/mL	250 µg/mL (≈ 1290 µM)	125 µg/mL (≈ 644 µM)	> 1000 µg/mL	125 µg/mL (≈ 644 µM)	250 µg/mL (≈ 1290 µM)	63 µg/mL (≈ 324 µM)	solubility (physchem): 200 µg/mL (≈ 1030 µM)
CC(C)OC(=O)c1ccc(O)cc1 [Isopropyl p-Hydroxybenzoate, isopropyl p-hydroxybenzoate]	1000 µg/mL (≈ 5550 µM)	1000 µg/mL (≈ 5550 µM)	500 µg/mL (≈ 2770 µM)	1000 µg/mL (≈ 5550 µM)	1000 µg/mL (≈ 5550 µM)	> 2000 µg/mL	< 125 µg/mL	500 µg/mL (≈ 2770 µM)	500 µg/mL (≈ 2770 µM)	1000 µg/mL (≈ 5550 µM)	1000 µg/mL (≈ 5550 µM)	> 2000 µg/mL	1000 µg/mL (≈ 5550 µM)	2000 µg/mL (≈ 11100 µM)	500 µg/mL (≈ 2770 µM)	250 µg/mL (≈ 1390 µM)	> 2000 µg/mL	< 125 µg/mL	250 µg/mL (≈ 1390 µM)	< 125 µg/mL	solubility (physchem): 800 µg/mL (≈ 4440 µM)
CCCCOC(=O)c1ccc(O)cc1 [n-Butyl p-Hydroxybenzoate, n-butyl p-hydroxybenzoate]	–	–	–	500 µg/mL (≈ 2570 µM)	–	–	–	–	–	–	–	–	–	–	–	–	–	–	–	–	solubility (water solubility): 150 µg/mL (≈ 772 µM); MIC ([1]; ATCC6538, 48 h): 125 µg/mL (≈ 644 µM); MIC ([2]; ATCC23355, 48 h): 250 µg/mL (≈ 1290 µM); MIC ([3]; ATCC6633, 48 h): 250 µg/mL (≈ 1290 µM); MIC ([5]; ATCC8100, 48 h): 500 µg/mL (≈ 2570 µM); MIC ([6]; ATCC15442, 48 h): > 6000 µg/mL; MIC (Saccharomyces cerevisiae): 32 µg/mL (≈ 165 µM); MIC ([7]; ATCC13315, 48 h): 125 µg/mL (≈ 644 µM); MIC ([8]; ATCC8308, 48 h): 250 µg/mL (≈ 1290 µM); MIC (Streptococcus faecalis): 250 µg/mL (≈ 1290 µM); MIC ([9]; ATCC8739, 48 h): 500 µg/mL (≈ 2570 µM); MIC ([10]; ATCC13388, 48 h): > 6000 µg/mL; MIC (Pseudomonas stutzeri): 500 µg/mL (≈ 2570 µM); MIC ([11]; ATCC9027, 48 h): > 6000 µg/mL; MIC ([12]; ATCC1228, 48 h): 250 µg/mL (≈ 1290 µM); MIC ([13]; ATCC10231, 48 h): 125 µg/mL (≈ 644 µM); MIC ([14]; ATCC14502, 48 h): > 6000 µg/mL; MIC ([15]; ATCC9480): 63 µg/mL (≈ 324 µM); MIC ([16]; ATCC9642): 125 µg/mL (≈ 644 µM); MIC [17]: 32 µg/mL (≈ 165 µM)
